Experimental data published in patent publication US20240116985A1, “STAPLED PEPTIDES AND METHODS THEREOF” (priority 2020, published 2024).
Like-named read-outs stand apart in the source and are kept apart here.

Key:
[1] = molecular target: T1, full-length beta-Catenin (Uniprot ID P35222) (Homo sapiens, UniProt P35222); test: Fluorescence polarization IC50 (beta-catenin / 5FAM-TCF4 10-53 competition); assay type: binding
T1 construct: 10 nM full-length beta-Catenin (Uniprot ID P35222)
T1 sequence (P35222 1-781): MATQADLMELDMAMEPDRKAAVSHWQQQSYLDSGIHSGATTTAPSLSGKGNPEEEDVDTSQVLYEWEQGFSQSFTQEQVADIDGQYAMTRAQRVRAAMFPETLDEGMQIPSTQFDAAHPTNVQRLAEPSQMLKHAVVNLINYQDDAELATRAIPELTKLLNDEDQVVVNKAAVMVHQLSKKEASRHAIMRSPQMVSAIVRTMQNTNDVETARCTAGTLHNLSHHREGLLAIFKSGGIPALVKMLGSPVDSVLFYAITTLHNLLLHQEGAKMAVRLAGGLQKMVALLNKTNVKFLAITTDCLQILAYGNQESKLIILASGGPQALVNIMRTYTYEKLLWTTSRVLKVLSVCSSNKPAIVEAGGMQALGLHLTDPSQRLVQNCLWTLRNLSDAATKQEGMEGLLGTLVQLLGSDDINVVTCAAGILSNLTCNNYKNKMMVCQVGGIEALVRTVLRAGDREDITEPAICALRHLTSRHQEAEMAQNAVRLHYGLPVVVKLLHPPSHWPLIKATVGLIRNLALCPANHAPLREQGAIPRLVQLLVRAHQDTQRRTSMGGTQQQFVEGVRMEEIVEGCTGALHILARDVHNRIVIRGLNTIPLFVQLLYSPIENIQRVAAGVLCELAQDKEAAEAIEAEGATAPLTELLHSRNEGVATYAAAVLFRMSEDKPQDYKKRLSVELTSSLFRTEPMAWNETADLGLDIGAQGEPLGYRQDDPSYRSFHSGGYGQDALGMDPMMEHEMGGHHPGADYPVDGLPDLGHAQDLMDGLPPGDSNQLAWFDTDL

[2] = CHI Log D procedure; assay type: physicochemical; settings: for CHI Log D: pH 7.4; for chromatographic logD: pH 7.4, CHI Log D
[3] = fluorescence polarization, beta-catenin, read-out: FP EC50
[4] = fluorescence polarization, read-out: beta-Catenin FP IC50

## CC(=O)N1CCC[C@]12CC=CCCCC1(CCCC=CCCCOC(=O)N3CC[C@@](C(=O)N[C@@H](Cc4ccsc4)C(=O)N[C@@H](Cc4csc5ccccc45)C(=O)N[C@@H](C)C(N)=O)(C3)NC(=O)[C@H](CC(N)=O)NC(=O)[C@H](Cc3ccccc3)NC(=O)[C@H](C)NC(=O)[C@H](C)NC(=O)[C@H](CN(CC(=O)O)CC(F)(F)F)NC(=O)[C@H](CC(=O)O)NC1=O)NC(=O)[C@H](CC(C)(C)C)NC(=O)[C@H](CC(=O)O)NC2=O (stereo partly drawn) [I-944, Ac-PL3-Asp-Npg-B5-Asp-TfeGA-Ala-Ala-Phe-Asn-PyrS2-3Thi-BztA-Ala-NH2]
[1]; [3]
  IC50: 761 nM
[1]; read-out: beta-Catenin FP IC50
  IC50: 761 nM
[2]
  CHI Log D: 1.982

## CC[C@@H]1NC(=O)[C@H](CC(=O)O)NC(=O)[C@]2(CC=CCCCC3(CCCC=CCCCCCC[C@@](C)(C(=O)N[C@@H](Cc4ccccc4)C(=O)N[C@@H](Cc4csc5ccccc45)C(=O)N[C@@H](CCC(N)=O)C(N)=O)NC(=O)[C@H](CC(N)=O)NC(=O)[C@H](Cc4ccccc4)NC(=O)[C@H](C)NC(=O)[C@H](C)NC(=O)[C@H](CC(=O)O)NC(=O)[C@H](CC(=O)O)NC3=O)NC1=O)CCCN2C(C)=O (stereo partly drawn) [I-572, Ac-PL3-Asp-Abu-B5-Asp-Asp-Ala-Ala-Phe-Asn-S8-Phe-BztA-Gln-NH2]
[1]; [4]
  IC50: 73 nM
[1]; read-out: FP EC50
  IC50: 73 nM
[2]
  CHI Log D: 2.064

## CC(=O)N1CCC[C@]12CC=CCCCC1(CCCC=CCCCCCC[C@@](C)(C(=O)N[C@@H](Cc3ccccc3)C(=O)N[C@@H](Cc3csc4ccccc34)C(=O)N[C@@H](Cc3c[nH]cn3)C(N)=O)NC(=O)[C@H](CCC(N)=O)NC(=O)[C@H](Cc3ccccc3)NC(=O)[C@H](C)NC(=O)[C@H](C)NC(=O)[C@H](CCC(=O)O)NC(=O)[C@H](CC(=O)O)NC1=O)NC(=O)[C@H](C)NC(=O)[C@H](CC(=O)O)NC2=O (stereo partly drawn) [I-419, Ac-PL3-Asp-Ala-B5-Asp-Glu-Ala-Ala-Phe-Gln-S8-Phe-BztA-His-NH2]
[1]; [4]
  IC50: 23 nM
[1]; read-out: FP EC50
  IC50: 23 nM
[2]
  CHI Log D: 2.114

## CC[C@H](C)[C@@H]1NC(=O)[C@H](CC(=O)O)NC(=O)[C@]2(CC=CCCCC3(CCCC=CCCCCCC[C@@](C)(C(=O)N[C@@H](Cc4ccccc4OC)C(=O)N[C@@H](Cc4csc5ccccc45)C(=O)N[C@@H](CCC(N)=O)C(N)=O)NC(=O)[C@H](CC(N)=O)NC(=O)[C@H](Cc4ccccc4)NC(=O)[C@H](C)NC(=O)[C@H](C)NC(=O)[C@H](CC(=O)O)NC(=O)[C@H](CC(=O)O)NC3=O)NC1=O)CCCN2C(C)=O (stereo partly drawn) [I-549, Ac-PL3-Asp-Ile-B5-Asp-Asp-Ala-Ala-Phe-Asn-S8-2OMeF-BztA-Gln-NH2]
[1]; [4]
  IC50: 71 nM
[1]; read-out: FP EC50
  IC50: 71 nM
[2]
  CHI Log D: 2.291

## CC[C@H](C)[C@@H]1NC(=O)[C@H](CC(=O)O)NC(=O)[C@]2(CC=CCCCC3(CCCC=CCCCCCC[C@@](C)(C(=O)N[C@@H](Cc4ccccc4)C(=O)N[C@@H](Cc4csc5ccccc45)C(=O)N[C@@H](CC(N)=O)C(N)=O)NC(=O)[C@H](CCC(N)=O)NC(=O)[C@H](Cc4ccccc4)NC(=O)[C@H](C)NC(=O)[C@H](C)NC(=O)[C@H](CCC(=O)O)NC(=O)[C@H](CC(=O)O)NC3=O)NC1=O)CCCN2C(C)=O (stereo partly drawn) [I-495, Ac-PL3-Asp-Ile-B5-Asp-Glu-Ala-Ala-Phe-Gln-S8-Phe-BztA-Asn-NH2]
[1]; [4]
  IC50: 181 nM
[2]
  chromatographic logD: 2.35

## CC(=O)N1CCC[C@]12CC=CCCCC1(CCCC=CCCCCCC[C@@](C)(C(=O)N[C@@H](Cc3ccccc3)C(=O)N[C@@H](Cc3csc4ccccc34)C(=O)N[C@@H](CCC(N)=O)C(N)=O)NC(=O)[C@H](CC(N)=O)NC(=O)[C@H](Cc3ccccc3)NC(=O)[C@H](C)NC(=O)[C@H](C)NC(=O)[C@H](CC(=O)O)NC(=O)[C@H](CC(=O)O)NC1=O)NC(=O)[C@H](CC(C)C)NC(=O)[C@H](CC(=O)O)NC2=O (stereo partly drawn) [I-562, Ac-PL3-Asp-Leu-B5-Asp-Asp-Ala-Ala-Phe-Asn-S8-Phe-BztA-Gln-NH2]
[1]; [4]
  IC50: 51 nM
[1]; read-out: FP EC50
  IC50: 51 nM
[2]
  CHI Log D: 2.269

## CC(=O)N1CCC[C@]12CC=CCCCC1(CCCC=CCCCCCC[C@@](C)(C(=O)N[C@@H](Cc3cccc(F)c3)C(=O)N[C@@H](Cc3csc4ccccc34)C(=O)N[C@@H](CCC(N)=O)C(N)=O)NC(=O)[C@H](CCC(N)=O)NC(=O)[C@H](Cc3cccs3)NC(=O)[C@H](C)NC(=O)[C@H](C)NC(=O)[C@H](CCC(=O)O)NC(=O)[C@H](CC(=O)O)NC1=O)NC(=O)[C@H](C)NC(=O)[C@H](CC(=O)O)NC2=O (stereo partly drawn) [I-401, Ac-PL3-Asp-Ala-B5-Asp-Glu-Ala-Ala-2Thi-Gln-S8-3FF-BztA-Gln-NH2]
[1]; [4]
  IC50: 134 nM
[2]
  chromatographic logD: 2.28

## CC[C@H](C)[C@@H]1NC(=O)[C@H](CC(=O)O)NC(=O)[C@]2(CC=CCCCC3(CCCC=CCCCCCC[C@@](C)(C(=O)N[C@@H](Cc4ccccc4OC)C(=O)N[C@@H](Cc4csc5ccccc45)C(=O)N[C@@H](Cc4c[nH]cn4)C(N)=O)NC(=O)[C@H](CC(N)=O)NC(=O)[C@H](Cc4ccccc4)NC(=O)[C@H](C)NC(=O)[C@H](C)NC(=O)[C@H](CC(=O)O)NC(=O)[C@H](CC(=O)O)NC3=O)NC1=O)CCCN2C(C)=O (stereo partly drawn) [I-553, Ac-PL3-Asp-Ile-B5-Asp-Asp-Ala-Ala-Phe-Asn-S8-2OMeF-BztA-His-NH2]
[1]; [4]
  IC50: 61 nM
[1]; read-out: FP EC50
  IC50: 61 nM
[2]
  CHI Log D: 2.398

## CC(=O)N1CCC[C@]12CC=CCCCC1(CCCC=CCCCCCC[C@@](C)(C(=O)N[C@@H](Cc3ccccc3)C(=O)N[C@@H](Cc3csc4ccccc34)C(=O)N[C@@H](CCC(N)=O)C(N)=O)NC(=O)[C@H](CC(N)=O)NC(=O)[C@H](Cc3ccccc3F)NC(=O)[C@H](C)NC(=O)[C@H](C)NC(=O)[C@H](CCC(=O)O)NC(=O)[C@H](CC(=O)O)NC1=O)NC(=O)[C@H](C)NC(=O)[C@H](CC(=O)O)NC2=O (stereo partly drawn) [I-453, Ac-PL3-Asp-Ala-B5-Asp-Glu-Ala-Ala-2FF-Asn-S8-Phe-BztA-Gln-NH2]
[1]; [4]
  IC50: 1550 nM
[2]
  chromatographic logD: 2.01

## CC(=O)N[C@@H](Cc1ccccc1)C(=O)N[C@@H](CC(=O)O)C(=O)N[C@@H](C)C(=O)N[C@]1(C)CCCCCCC=CCOC(=O)N2CC[C@@](C(=O)N[C@@H](Cc3ccccc3)C(=O)N[C@@H](Cc3c[nH]c4ccccc34)C(=O)N[C@@H](CCC(N)=O)C(N)=O)(C2)NC(=O)[C@H](C(C)C)NC(=O)[C@H](Cc2ccc(F)cc2)NC(=O)[C@H](C)NC(=O)[C@H](C)NC(=O)[C@H](CC(=O)O)NC(=O)[C@H](CC(=O)O)NC1=O [I-78, Ac-Phe-Asp-Ala-R8-Asp-Asp-Ala-Ala-4FF-Val-PyrS-Phe-Trp-Gln-NH2]
[1]; Table E2-1, read-out: beta-Catenin FP IC50
  IC50: 5000 nM
[2]
  chromatographic logD: 1.24

## CC(=O)N1CCC[C@]12CC=CCCCC1(CCCC=CCCCCCC[C@@](C)(C(=O)N[C@@H](Cc3ccccc3)C(=O)N[C@@H](Cc3csc4ccccc34)C(=O)N[C@H](CC(N)=O)C(N)=O)NC(=O)[C@H](CC(N)=O)NC(=O)[C@H](Cc3ccccc3)NC(=O)[C@H](C)NC(=O)[C@H](C)NC(=O)[C@H](CCC(=O)O)NC(=O)[C@H](CC(=O)O)NC1=O)NC(=O)[C@H](CC(C)C)NC(=O)[C@H](CC(=O)O)NC2=O (stereo partly drawn) [I-757, Ac-PL3-Asp-Leu-B5-Asp-Glu-Ala-Ala-Phe-Asn-S8-Phe-BztA-dAsn-NH2]
[1]; read-out: FP EC50
  IC50: 64 nM
[1]; read-out: beta-Catenin FP IC50
  IC50: 64 nM
[2]
  CHI Log D: 2.546

## CC[C@H](C)[C@@H]1NC(=O)[C@H](CC(=O)O)NC(=O)[C@]2(CC=CCCCC3(CCCC=CCCCCCC[C@@](C)(C(=O)N[C@@H](Cc4ccccc4)C(=O)N[C@@H](Cc4csc5ccccc45)C(=O)N[C@@H](CCC(N)=O)C(N)=O)NC(=O)[C@H](CCC(N)=O)NC(=O)[C@H](Cc4ccccc4)NC(=O)[C@H](C)NC(=O)[C@H](C)NC(=O)[C@H](CCC(=O)O)NC(=O)C[C@@H](CC(=O)O)NC3=O)NC1=O)CCCN2C(C)=O (stereo partly drawn) [I-676, Ac-PL3-Asp-Ile-B5-SbGlu-Glu-Ala-Ala-Phe-Gln-S8-Phe-BztA-Gln-NH2]
[1]; [4]
  IC50: 5000 nM
[2]
  chromatographic logD: 2.29

## CC[C@H](C)[C@@H]1NC(=O)[C@H](CC(=O)O)NC(=O)[C@]2(CC=CCCCC3(CCCC=CCCCCCC[C@@](C)(C(=O)N[C@@H](Cc4ccccc4)C(=O)N[C@@H](Cc4csc5ccccc45)C(=O)N[C@@H](CCC(N)=O)C(N)=O)NC(=O)[C@H](CCC(N)=O)NC(=O)[C@H](Cc4ccccc4)NC(=O)[C@H](C)NC(=O)[C@H](C)NC(=O)[C@H](CCC(=O)O)NC(=O)[C@H](CC(=O)O)NC3=O)NC1=O)CCCN2C(=O)CCc1ccccn1 (stereo partly drawn) [I-602, 2PyPrpc-PL3-Asp-Ile-B5-Asp-Glu-Ala-Ala-Phe-Gln-S8-Phe-BztA-Gln-NH2]
[1]; [4]
  IC50: 3150 nM
[2]
  chromatographic logD: 3.15

## CC(=O)N1CCC[C@]12CC=CCCCC1(CCCC=CCCCCCC[C@@](C)(C(=O)N[C@@H](Cc3cccc(F)c3)C(=O)N[C@@H](Cc3csc4ccccc34)C(=O)N[C@@H](CCC(N)=O)C(N)=O)NC(=O)[C@H](C(C)C)NC(=O)[C@H](Cc3ccccc3)NC(=O)[C@H](C)NC(=O)[C@H](C)NC(=O)[C@H](Cc3c[nH]cn3)NC(=O)[C@H](CC(=O)O)NC1=O)NC(=O)[C@H](C)NC(=O)[C@H](CC(=O)O)NC2=O (stereo partly drawn) [I-396, Ac-PL3-Asp-Ala-B5-Asp-His-Ala-Ala-Phe-Val-S8-3FF-BztA-Gln-NH2]
[1]; [3]
  IC50: 3430 nM
[1]; [4]
  IC50: 3430 nM
[2]
  CHI Log D: 2.819
